A short description of this data set: Miscibility of insecticide in gel formulation. The format is physicochemical. From the text: Thus, the improved gel formulation allows permeation of an effective amount of the active ingredient to occur in about 3 days, as compared to about 3 to 5 weeks for prior formulations. As a result of this shortened initial permeation period, the device is ready for use more quickly after manufacture, thereby reducing or eliminating the amount of time that such devices must be stored prior to use. Additional advantages of the device of the present invention include eliminating several of the problems associated with the use of a mineral oil-based gel, such as leaving an oily residue on the animal, the potential for triggering skin irritations, and inhibiting the process of sealing the reservoir. In addition, insecticides such as cypermethrin which are not miscible in mineral oil-based gels are miscible in the improved gel formulation of the present invention.

Consider `CC1(C)C(C=C(Cl)Cl)C1C(=O)OC(C#N)c1cccc(Oc2ccccc2)c1` (centres unmarked) [cypermethrin], for which the Miscibility result runs as follows: (in mineral oil-based gels) “not miscible”; (in the improved gel formulation of the present invention) “miscible”.

These data come from US6835386B2, “Collar containing a novel gel formulation to control arthropod infestation of animals” (Pfizer Inc., priority 1998, dated 2004).
